Here are results for 28 compounds from ChEMBL document CHEMBL1151044, “5,7-Diphenyl-3-ureidohexahydroazepin-2-ones as Cholecystokinin-B receptor ligands” (Bioorg Med Chem Lett, 1994).

The test concerns the target T1, Cholecystokinin receptor type A (Cavia porcellus, UniProt Q63931).
T1 sequence (Q63931 whole entry): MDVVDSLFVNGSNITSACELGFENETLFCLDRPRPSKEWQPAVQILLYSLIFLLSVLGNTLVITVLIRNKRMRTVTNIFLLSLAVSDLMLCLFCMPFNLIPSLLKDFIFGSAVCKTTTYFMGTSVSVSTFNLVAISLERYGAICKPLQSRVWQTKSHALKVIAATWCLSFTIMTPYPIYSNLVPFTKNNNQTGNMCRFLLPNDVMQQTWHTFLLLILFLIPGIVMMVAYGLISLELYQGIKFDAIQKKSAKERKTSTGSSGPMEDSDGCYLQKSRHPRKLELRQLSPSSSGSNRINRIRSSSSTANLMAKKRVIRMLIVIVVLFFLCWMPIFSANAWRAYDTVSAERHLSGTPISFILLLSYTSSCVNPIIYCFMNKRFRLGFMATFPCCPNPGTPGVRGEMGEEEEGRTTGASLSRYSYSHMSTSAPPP
Briefly: Inhibitory activity against cholecystokinin-A (CCK-A) receptor in pancreas of guinea pig.

SMILES strings stand for the structures.

Take `Cc1cccc(NC(=O)N[C@@H]2C[C@H](c3ccccc3)C[C@H](c3cccc(C)c3)N(CC(=O)NC(C)(C)C)C2=O)c1`: the IC50 (usually the point on the concentration scale where inhibition reaches its midpoint) was 1.6 nM.
The compound `Cc1cccc(NC(=O)N[C@@H]2C[C@H](c3cccc(C)c3)C[C@H](c3ccccc3)N(CC(=O)NC(C)(C)C)C2=O)c1` displayed an IC50 of 1.3 nM.
To `Cc1cccc(NC(=O)N[C@@H]2C[C@H](c3ccccc3C)C[C@H](c3ccccc3)N(CC(=O)Nc3ccc(Cl)cc3)C2=O)c1` belongs above 10 nM.
On to `Cc1cccc(NC(=O)N[C@@H]2C[C@H](c3ccccc3C)C[C@H](c3ccccc3)N(CC(=O)Nc3ccccc3C)C2=O)c1`, for which the IC50 stood at 1.1 nM.
`Cc1ccc(NC(=O)CN2C(=O)[C@H](NC(=O)Nc3cccc(C)c3)C[C@H](c3ccccc3C)C[C@@H]2c2ccccc2)cc1` came in with an IC50 above 10 nM.
As to `Cc1ccc([C@@H]2C[C@H](c3ccccc3)N(CC(=O)NC(C)(C)C)C(=O)[C@H](NC(=O)Nc3cccc(C)c3)C2)cc1`, the midpoint of inhibition, the IC50, lay at 1.1 nM.
To `Cc1cccc(NC(=O)N[C@@H]2C[C@H](c3ccccc3C)C[C@H](c3ccccc3)N(CC(=O)NC(C)C)C2=O)c1` belongs 560 nM; to `Cc1ccccc1[C@@H]1C[C@H](c2ccccc2)N(CC(=O)NC(C)(C)C)C(=O)[C@H](NC(=O)Nc2cccc(C(F)(F)F)c2)C1`, 2500 nM.
`Cc1cccc(NC(=O)N[C@H]2C[C@H](c3ccccc3)C[C@H](c3ccccc3)N(CC(=O)NC(C)(C)C)C2=O)c1` displayed an IC50 of 10 nM.
With `Cc1ccccc1[C@@H]1C[C@H](c2ccccc2)N(CC(=O)NC(C)(C)C)C(=O)[C@H](NC(=O)Nc2cccc([N+](=O)[O-])c2)C1` the figure was above 10 nM; with `Cc1cccc(NC(=O)N[C@@H]2C[C@H](c3ccccc3)C[C@H](c3cccc(F)c3)N(CC(=O)NC(C)(C)C)C2=O)c1`, 1 nM.
Consider `Cc1cccc(NC(=O)N[C@@H]2C[C@H](c3ccccc3C)C[C@H](c3ccccc3)N(CC(=O)Nc3ccccc3Cl)C2=O)c1`, for which the IC50 is 1.1 nM.
Compound `Cc1cccc(NC(=O)N[C@@H]2C[C@H](c3ccccc3C)C[C@H](c3ccccc3)N(CC(=O)NC(C(C)(C)C)C(C)(C)C)C2=O)c1` returned an IC50 above 10 nM.
As for `CCc1cccc(NC(=O)N[C@@H]2C[C@H](c3ccccc3C)C[C@H](c3ccccc3)N(CC(=O)NC3(C)CCCCC3)C2=O)c1`, the IC50 was above 10 nM.
With `Cc1ccccc1[C@@H]1C[C@H](c2ccccc2)N(CC(=O)NC(C)(C)C)C(=O)[C@H](NC(=O)Nc2cccc(F)c2)C1` the figure was 1.8 nM; with `Cc1cccc(NC(=O)N[C@@H]2C[C@H](c3ccccc3)C[C@H](c3ccccc3)N(CC(=O)NC(C)(C)C)C2=O)c1`, 823 nM.
To `COc1ccc(NC(=O)N[C@@H]2C[C@H](c3ccccc3C)C[C@H](c3ccccc3)N(CC(=O)NC(C)(C)C)C2=O)cc1` belongs 2.2 nM; to `Cc1cccc(NC(=O)N[C@@H]2C[C@H](c3ccccc3C)C[C@H](c3ccccc3)N(CC(=O)NC3(C)CCCCC3)C2=O)c1`, 4.4 nM; to `Cc1cccc(NC(=O)N[C@@H]2C[C@H](c3ccccc3)C[C@H](c3ccc(F)cc3)N(CC(=O)NC(C)(C)C)C2=O)c1`, 2.8 nM.
As to `Cc1cccc(NC(=O)N[C@@H]2C[C@H](c3ccccc3C)C[C@H](c3ccccc3)N(CC(=O)Nc3cccc(Cl)c3)C2=O)c1`, the IC50 was above 10 nM.
As for `Cc1cccc(NC(=O)N[C@@H]2C[C@H](c3ccc(F)cc3)C[C@H](c3ccccc3)N(CC(=O)NC(C)(C)C)C2=O)c1`, half-maximal inhibition (IC50) was put at 700 nM.
Take `Cc1ccc([C@H]2C[C@@H](c3ccccc3)C[C@@H](NC(=O)Nc3cccc(C)c3)C(=O)N2CC(=O)NC(C)(C)C)cc1`: the IC50 stood at 970 nM.
To `CCc1ccccc1[C@@H]1C[C@H](c2ccccc2)N(CC(=O)NC(C)(C)C)C(=O)[C@H](NC(=O)Nc2cccc(C)c2)C1` belongs 810 nM; to `COc1ccccc1[C@@H]1C[C@H](c2ccccc2)N(CC(=O)NC(C)(C)C)C(=O)[C@H](NC(=O)Nc2cccc(C)c2)C1`, 750 nM.
With `Cc1ccccc1[C@@H]1C[C@H](c2ccccc2)N(CC(=O)NC(C)(C)C)C(=O)[C@H](NC(=O)Nc2ccc(Cl)cc2)C1` the figure was above 10 nM.
With `Cc1cccc(NC(=O)N[C@@H]2C[C@H](c3ccccc3C)C[C@H](c3ccccc3)N(CC(=O)NC(C)(C)C)C2=O)c1` (stereo in doubt; 10i), the IC50 was 580 nM.
`Cc1cccc(NC(=O)N[C@@H]2C[C@H](c3ccccc3C)C[C@H](c3ccccc3)N(CC(=O)NC(C)(C)C)C2=O)c1` (stereo in doubt; (+)-10i) showed an IC50 of 610 nM.
In turn, `Cc1cccc(NC(=O)N[C@@H]2C[C@H](c3ccccc3C)C[C@H](c3ccccc3)N(CC(=O)NC(C)(C)C)C2=O)c1` (stereo in doubt; (-)-10i) gave a 50% inhibitory concentration (IC50) of 930 nM.
